According to a melting point compilation (Tetko et al.; mined from patent text by program, amines drawn as free bases though some values may be those of a salt):

Structure (SMILES)	melting point [°C]
COC(=O)c1cccc(-c2c(C#N)nn(-c3c(Cl)cc(C(F)(F)F)cc3Cl)c2N)c1	214 to 216
CCOc1ccc(-c2c(Cl)c(CN3C(=O)CCC3=O)nc3sc4c(c23)CCNC4)cc1	215 to 217
N#Cc1ccc(OCCc2coc(-c3ccccc3)n2)cc1	115
CC(Cc1ccc(O)cn1)NC1CC1 (configuration not stated)	161
COc1cc(C)c(Br)cc1C	38.4
CCOC(=O)C(C(=O)OCC)C(NC(C)=O)[PH](=O)O (configuration not stated)	113 to 114
O=C(O)N[C@@H](CC1CCCCC1)[C@@H](O)[C@@H]1CCCS1	118 to 119
CCOC(=O)COc1ccc(-c2nn(-c3ccccc3)c3ncccc23)cc1	118 to 120
Clc1ccc2oc(Cl)nc2c1	46 to 48
COc1cc(Nc2c(C#N)cnc3cc4cc(OC)c(OCCN5CCN(C)CC5)cc4cc23)c(Cl)cc1F	170 to 173
O=C(CCCO)NCCO	54 to 56
CCOP(OCC)c1ccccc1P(c1cc(C(C)(C)C)c(OC)c(C(C)(C)C)c1)c1cc(C(C)(C)C)c(OC)c(C(C)(C)C)c1	104 to 105
O=c1[nH]c2ccccc2n1CCOC1CCCCO1 (configuration not stated)	115
COC(=O)c1ccc(OCCCCC2Cc3c(c(OC)c(OC)c(OC)c3OC)C2)cc1	68 to 71
CCCOC(=O)c1sccc1S(N)(=O)=O	79
CNC(=O)NCCSCc1csc(CN(C)C)n1	56 to 59
CCCCCCCCCCCCCCOc1ccc(N)cc1	65 to 68
N#CC(=Cc1cc2cccnc2n(-c2cc(Cl)cc(Cl)c2)c1=O)c1ccccn1	319
Nc1ccc(CO)cc1N	74 to 75
NC(=O)N(O)CCNC(=O)CCc1ccccc1	165 to 167
N#CC1=C(C#N)Sc2nc3ccccc3nc2S1	> 300

Structure (SMILES)	melting point [°C]
c1ccc(C(c2ccccc2)N2CCN(CCCn3cnc4ccccc43)CC2)cc1	132
CCOC(=O)c1cnc2[nH]ncc2c1OCC	180
c1ccc(CN2CCC(COc3ccccc3)CC2)cc1	56 to 57
CCCN1N=C2C(=Cc3ccc(OC)cc3)CSCC2C1c1ccc(OC)cc1 (configuration not stated)	150 to 152
C#CCOc1cccnc1Cl	78 to 79
Cc1ccc(N(c2ccc(-c3ccccc3)cc2)c2ccc(C)c(C)c2)cc1C	114
Cc1c(-c2cccnc2)n(CCCC=CC(=O)O)c2ccccc12	145 to 147
CCS(=O)(=O)c1cccnc1S(N)(=O)=O	211 to 212
N=C(NC(=O)c1cccc2ccccc12)N1CC(c2ccccc2)C(c2ccc(Cl)cc2)=N1 (configuration not stated)	206 to 207
CNc1nc(NC)c2ncn(COC(COC(=O)C(C)C)COC(=O)C(C)C)c2n1	122 to 123
Clc1c2ccccc2nc2cc(-c3ccccc3)ccc12	104 to 108
CS(=O)(=O)c1sc(S(N)(=O)=O)cc1CCO	120 to 124
CN(C)C=Nc1c(Cl)cc(N=Cc2c(Cl)cccc2Cl)cc1Cl	84 to 86
OC1(c2ccc(Br)cc2)c2ccccc2C2=NCCN21 (configuration not stated)	194 to 196
CCOC(=O)C1(Br)Oc2ccc(OC(C)=O)cc2OC1Br (configuration not stated)	58
O=C1C2=C(NC(=O)C3(N2)SCCS3)c2ccccc21	> 300
CCC(=O)N(OC(=O)NC)C(=O)NC	90.5 to 92.5
COc1ccccc1NC(=O)Nc1ccc(C2=CCN(C(=O)Nc3ccc(OCCO)cc3Cl)CC2)cc1	120 to 125
NS(=O)(=O)N1CCC(C2c3ncc(Br)cc3CCc3cc(Cl)cc(Cl)c32)CC1 (single isomer, unassigned; (+))	133 to 134
CCOC(=O)C1=C[C@@H](OC(CC)CC)[C@H](NC(C)=O)[C@@H](NC(=O)OC(C)(C)C)C1	144 to 145
CCN(CC)CCOc1ccc(Nc2ncc3c(n2)N(c2cccc(CCN(C)C)c2)C(=O)N(c2ccc(Cl)cc2Cl)C3)cc1	92

Structure (SMILES)	melting point [°C]
c1ccc(C(=NOC(=NC2CCCCC2)NC2CCCCC2)c2ccccc2)cc1	104 to 107
COC(=O)C=Cc1c(O)cccc1C#CCCCCOC1CCCCO1 (racemic)	66 to 67.5
O=C(O)COc1ccc(OC2CCN(c3ccncc3)CC2)cc1	288 to 291
CCC(C)NC(=O)OC1c2ccccc2C(=O)N1c1ccc2ccc(Cl)nc2n1 (configuration not stated)	220 to 222
CCCNC(=O)N1CCC(O)(Cc2c3c(nn2CC)c(N)nc2ccccc23)CC1	208 to 210
CC(C)(C)c1ccccc1N1CCN(C(=O)CCC(=O)NS(C)(=O)=O)CC1	89 to 90
Cc1ccc(C#CCOCCn2cnc3c(N)nc4ccccc4c32)cc1C	214 to 216
Cc1cc(-c2c(-c3ccc(S(N)(=O)=O)cc3)cnn(-c3ccc(F)cc3)c2=O)ccc1F	202 to 204
O=C(O)CCCCCCCCCCCCCCCCCCC(=O)n1nnc2ccccc21	112
COc1ccc(N2CCN(c3ccc(N(C)C4=NC(C)(C)CS4)cc3)CC2)cc1	167
Cc1oc(C2(C)CC=CCC2)nc1CC(=O)O (configuration not stated)	144 to 145
CCOC(=O)c1cn(CC)c2nc(N3CCN(C)CC3)ccc2c1=O	130
COc1c(C)c2c(c(OS(C)(=O)=O)c1C/C=C(/Cl)CBr)C(=O)OC2	146 to 148
CC(C)NC1=NS(=O)(=O)c2cc(Cl)sc2N1	272 to 274
O=c1[nH]c2ncc(-c3ccc(-c4nn[nH]n4)cc3)nc2n1CC1CCCCC1	> 400
CCCCC(=O)N(Cc1ccc(-c2ccccc2-c2nc(=O)o[nH]2)cc1)c1sccc1C(=O)OC	154 to 155
Cc1ccc2c(c1)C(C(=O)Nc1c(Br)cccc1Br)c1ccccc1CO2 (configuration not stated)	184
CCCOc1nsc(NC(=O)NC)c1C#N	220
CCCCCCCCCCCCSCCC(=O)OC(CSCCCCCCCCCCCC)CSCCCCCCCCCCCC	31 to 32
Cc1cccc(C)c1C1CCN(Cc2cc3ccccc3[nH]2)CC1	128 to 130

Further lines, results first:

melting point [°C]	Structure (SMILES)
173 to 175	CC(C)(C)COc1c(-c2ccc(S(N)(=O)=O)cc2)cnn(-c2ccc(F)c(F)c2)c1=O
161	COc1cc(C)c(C(=O)c2c(Cl)cccc2Cl)c(O)c1OC
130	CCCC(=O)N1CCc2nc3ccccc3c(C)c2CC1
116 to 117	Cc1ccccc1Oc1cccc(CC(=O)O)c1O
152	O=C(Nc1ccc(OS(=O)(=O)c2cccc(C(F)(F)F)c2)cc1[N+](=O)[O-])NS(=O)(=O)Cl
92 to 94	COC(=O)c1cccc([N+](=O)[O-])c1NC(=O)OC(C)(C)C
203 to 205	CCOCc1nc2c(N)nc3cc(C=O)ccc3c2n1CC(C)(C)O
183 to 184	COc1ccc(-c2cccn2-c2ccc(S(N)(=O)=O)cc2)cc1
139	Cc1cc(C)c(-n2nnc3c(-c4ccccc4C(F)(F)F)nc(C)nc32)c(C)c1
62 to 63	COc1cc2cc(Br)c(C)cc2c(C(C)C)c1OC
104 to 106	O=C(COc1cccc2ccccc12)NC(Cc1ccccc1)C(=O)CSCc1ccco1 (configuration not stated)
85 to 87	CC(O)Cn1ccc2ccc(F)c(Cl)c21 (racemic)
137 to 138	CC(=O)N[C@@H](CSC(=O)c1ccccc1)C(=O)NCCSC(=O)C(C)C
190 to 192	CNC(=O)NS(=O)(=O)c1ccccc1C=CC(F)(F)F
156 to 160	O=c1cc(C(F)(F)F)cnn1-c1cc(Oc2ncccn2)c(Cl)cc1F
164 to 165	CCCCCS(=O)(=O)NC(=O)/C=C/c1ccc(OCCOC)cc1Oc1cc(C(F)(F)F)ccc1[N+](=O)[O-]
136 to 137	CCS(=O)CCNC(=O)C1=C(C(=O)Nc2ccc(Cl)cc2F)CCCC1 (configuration not stated)
66 to 67.5	COC(=O)NCc1ccc(Br)cc1F
233 to 234	CCNC(=O)NS(=O)(=O)c1cc2c(cc1OC)OCC(NC(=O)c1cc(Cl)ccc1OC)C2 (configuration not stated)
225 to 226	COc1ccc(-c2cc(C(=O)Nc3cccc(F)n3)c3ccccc3n2)cc1OC

melting point [°C]	Structure (SMILES)
78 to 81	COc1c(Cl)ccc(-c2cc(N)c(Cl)c(C(=O)N3CC=CCO3)n2)c1F
153 to 156	COC(=O)c1nsc2ccc(-n3c(=O)cc(C(F)(F)F)n(C)c3=O)cc12
170 to 173	O=C(OC1CCCCC1)C(c1ccccc1)n1cnc2[nH]ncc2c1=S (configuration not stated)
58 to 60	COc1cccc(CO)c1OCc1ccccc1
248	O=C(Nc1cccc2[nH]ccc12)c1cc(O)cc(Cl)c1
127 to 128	CCCc1nc2c(N)nc3cc(OCCCCCCNC(=O)c4ccc(N=[N+]=[N-])cc4O)ccc3c2s1
110	CCn1c(C(C)C)cc(-c2ccc(F)cc2)c1-c1ccccc1
177 to 179	COc1cccc(C(=O)Nc2ccc3sc(C)nc3c2Cl)c1
199 to 200	CCCn1nc2c(N)nc3ccccc3c2c1CC(C)C
66 to 69	CSc1cc(Oc2cccc(C(F)(F)F)c2)nc(C(=O)NC(C)C)c1
108 to 109	OCCSc1nc2ccc(Cc3ccccc3)cc2[nH]1
225 to 228	NC(=O)c1cccnc1Oc1cccc(Cl)c1
114 to 116	COc1cc(OC)c2c(=O)[nH]c(-c3ccc(OCCNC(C)C)c(-c4ccc(S(C)(=O)=O)cc4)n3)nc2c1
130 to 133	CNC(=O)N(O)C(C)c1ccc(F)cc1 (configuration not stated)
132 to 134	COC(=O)c1sc2c(c1C)c1ccccc1n2Cc1ccccc1
111	CCSc1cccc(OC(F)(F)F)c1S(=O)(=O)NC(=O)c1noc(C)n1
45 to 46	COC(=O)COc1ccc(C(=O)C(C)C)cc1
172 to 174	CCOC(=O)C1=NOC(c2ccc(NC(=O)c3c(I)cccc3C(=O)NC(C)C)c(C)c2)(C(F)(F)F)C1 (configuration not stated)
136 to 141	CCOc1ccc(F)c(N=Cc2cnc(SC)nc2NC2CCCC2)c1F
163 to 165	O=S(=O)(c1c[nH]c(Br)c1-c1ccc(Cl)cc1)C(F)(F)F
